Assay results as given in the supplement of paper PMC10307832.

Columns and labels:
Test in all cases: relative viability (nuclei count vs DMSO), 5 days (fraction); higher = more cells survive
Pictilisib + Alpelisib = compound: CS(=O)(=O)N1CCN(Cc2cc3nc(-c4cccc5[nH]ncc45)nc(N4CCOCC4)c3s2)CC1 [Pictilisib] + Cc1nc(NC(=O)N2CCC[C@H]2C(N)=O)sc1-c1ccnc(C(C)(C)C(F)(F)F)c1 [Alpelisib] (partner 2 µM)
How it was run: (§1)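 Lung cancer cell lines in 1536-well plates got either a single drug or a fixed anchor-drug dose together with five library-drug doses (not always all listed) in √10 steps, by pin tool, on the day after seeding. Nuclei were counted after 5 days, and relative viability is the treated-to-vehicle ratio of nuclei counts. Values are medians of duplicate plates.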

Pictilisib + Crizotinib = compound: CS(=O)(=O)N1CCN(Cc2cc3nc(-c4cccc5[nH]ncc45)nc(N4CCOCC4)c3s2)CC1 [Pictilisib] + C[C@@H](Oc1cc(-c2cnn(C3CCNCC3)c2)cnc1N)c1c(Cl)ccc(F)c1Cl [Crizotinib] (partner 1 µM)
How it was run: as §1

MK-2206 + Navitoclax = compound: NC1(c2ccc(-c3nc4ccn5c(=O)[nH]nc5c4cc3-c3ccccc3)cc2)CCC1 [MK-2206] + CC1(C)CCC(c2ccc(Cl)cc2)=C(CN2CCN(c3ccc(C(=O)NS(=O)(=O)c4ccc(N[C@H](CCN5CCOCC5)CSc5ccccc5)c(S(=O)(=O)C(F)(F)F)c4)cc3)CC2)C1 [Navitoclax] (partner 0.5 µM)
How it was run: as §1

MK-2206 + Olaparib = compound: NC1(c2ccc(-c3nc4ccn5c(=O)[nH]nc5c4cc3-c3ccccc3)cc2)CCC1 [MK-2206] + O=C(c1cc(Cc2n[nH]c(=O)c3ccccc23)ccc1F)N1CCN(C(=O)C2CC2)CC1 [Olaparib] (partner 8 µM)
How it was run: as §1

MK-2206 + Vorinostat = compound: NC1(c2ccc(-c3nc4ccn5c(=O)[nH]nc5c4cc3-c3ccccc3)cc2)CCC1 [MK-2206] + O=C(CCCCCCC(=O)Nc1ccccc1)NO [Vorinostat] (partner 1 µM)
How it was run: as §1

## UMC-11
Pictilisib + Alpelisib; first compound 0.02 µM
  relative viability: 0.942
Pictilisib + Alpelisib; first compound 0.06325 µM
  relative viability: 1.05
Pictilisib + Alpelisib; first compound 0.6325 µM
  relative viability: 1.14
Pictilisib + Alpelisib; first compound 2 µM
  relative viability: 1.17
Pictilisib + Crizotinib; first compound 0.02 µM
  relative viability: 0.633
Pictilisib + Crizotinib; first compound 0.06325 µM
  relative viability: 0.887
Pictilisib + Crizotinib; first compound 0.6325 µM
  relative viability: 0.733
Pictilisib + Crizotinib; first compound 2 µM
  relative viability: 0.58
MK-2206 + Navitoclax; first compound 0.01 µM
  relative viability: 0.309
MK-2206 + Navitoclax; first compound 0.03162 µM
  relative viability: 0.327
MK-2206 + Navitoclax; first compound 0.3162 µM
  relative viability: 0.344
MK-2206 + Navitoclax; first compound 1 µM
  relative viability: 0.29
MK-2206 + Olaparib; first compound 0.01 µM
  relative viability: 0.52
MK-2206 + Olaparib; first compound 0.03162 µM
  relative viability: 1.16
MK-2206 + Olaparib; first compound 0.3162 µM
  relative viability: 0.381
MK-2206 + Olaparib; first compound 1 µM
  relative viability: 0.363
MK-2206 + Vorinostat; first compound 0.01 µM
  relative viability: 0.388
MK-2206 + Vorinostat; first compound 0.03162 µM
  relative viability: 0.365
MK-2206 + Vorinostat; first compound 0.3162 µM
  relative viability: 0.416
MK-2206 + Vorinostat; first compound 1 µM
  relative viability: 0.379
